Several values for one entry are separate records, joined by “and”; a condition that tells them apart may be missing. Identical values can stand only once. Inconclusive results and toxic doses are left out.

The values below come from PubChem BioAssay AID256 (DTP/NCI, 2004).

This assay deals with CD2F1 mice, L1210 leukemia ip, survival T/C. The assay can be described thus: NCI In Vivo Anticancer Drug Screen. Data for tumor model L1210 Leukemia (intraperitoneal) in CD2F1 (CDF1) mice. Conditions: higher = longer survival. In outline: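 Activity against a transplanted murine tumor was judged by comparing the compound group with a vehicle group. The outcome in the treated animals was divided by that in the controls.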

[1] abbreviates: endpoint: mean survival time, dose: 100.0 mg/kg/injection, schedule: Q01DX009 (ip), vehicle: saline with Tween-80.
[2] abbreviates: endpoint: mean survival time, dose: 100.0 mg/kg/injection, schedule: Q04DX003 (ip), vehicle: saline with Tween-80.
[3] abbreviates: endpoint: mean survival time, dose: 200.0 mg/kg/injection, schedule: Q04DX003 (ip), vehicle: saline with Tween-80.
Where [4] appears, read: endpoint: mean survival time, dose: 400.0 mg/kg/injection, schedule: Q04DX003 (ip), vehicle: saline with Tween-80.
The mark [5] stands for this setting: endpoint: mean survival time, dose: 50.0 mg/kg/injection, schedule: Q04DX003 (ip), vehicle: saline with Tween-80.
Where [6] appears, read: endpoint: mean survival time, dose: 50.0 mg/kg/injection, schedule: Q01DX009 (ip), vehicle: saline with Tween-80.
[7] abbreviates: endpoint: mean survival time, dose: 200.0 mg/kg/injection, schedule: Q01DX009 (ip), vehicle: saline with Tween-80.

Take `CC(=O)[O][Sb]([CH3])([CH3])([CH3])[O]C(C)=O`: the T/C (endpoint: mean survival time, dose: 100.0 mg/kg/injection, schedule: Q04DX002 (ip), vehicle: saline with Tween-80) was 110 % of control; the T/C (endpoint: mean survival time, dose: 200.0 mg/kg/injection, schedule: Q04DX002 (ip), vehicle: saline with Tween-80) is 98 % of control; the T/C (endpoint: mean survival time, dose: 400.0 mg/kg/injection, schedule: Q04DX002 (ip), vehicle: saline with Tween-80) is 103 % of control.
As to `N#C/C(=C\c1c(O)ccc2ccccc12)c1ccc([N+](=O)[O-])cc1`, the T/C is 88 % of control (endpoint: mean survival time, dose: 66.0 mg/kg/injection, schedule: Q01DX009 (ip), vehicle: saline with Tween-80); 91 % of control and 92 % of control under setting [1]; 91 % of control under setting [2]; 100 % of control (endpoint: mean survival time, dose: 150.0 mg/kg/injection, schedule: Q01DX009 (ip), vehicle: saline with Tween-80); 94 % of control under setting [3]; 91 % of control under setting [4].
As for `CN(C1=CC(=O)C(C)(C)c2ccccc21)C1CCCCC1`, the T/C is 95 % of control under setting [2], 91 % of control under setting [3] and 94 % of control under setting [4].
The corresponding values for `C[C@@H]1CC2=CC(=O)CC[C@]2(C)[C@H]2CC[C@]3(C)[C@@H](O)CC[C@H]3[C@H]12` are 98 % of control, 119 % of control and 98 % of control.
For `COc1cccc2c1C(=O)c1c(O)c3c(c(O)c1C2=O)CC(O)(/C(C)=N/NC(=O)CCC(=O)N/N=C(\C)C1(O)Cc2c(O)c4c(c(O)c2C(OC2CC(N)C(O)C(C)O2)C1)C(=O)c1c(OC)cccc1C4=O)CC3OC1CC(N)C(O)C(C)O1` (configuration not stated), the T/C (endpoint: mean survival time, dose: 0.39 mg/kg/injection, schedule: Q01DX009 (ip), vehicle: water) was 102 % of control; the T/C (endpoint: mean survival time, dose: 0.78 mg/kg/injection, schedule: Q01DX009 (ip), vehicle: water) is 106 % of control; the T/C (endpoint: mean survival time, dose: 1.56 mg/kg/injection, schedule: Q01DX009 (ip), vehicle: water) was 113 % of control and 101 % of control; the T/C (endpoint: mean survival time, dose: 3.13 mg/kg/injection, schedule: Q01DX009 (ip), vehicle: water) was 106 % of control and 111 % of control; the T/C (endpoint: mean survival time, dose: 6.25 mg/kg/injection, schedule: Q01DX009 (ip), vehicle: water) is 118 % of control; the T/C (endpoint: mean survival time, dose: 12.5 mg/kg/injection, schedule: Q01DX009 (ip), vehicle: water) is 150 % of control. In addition, the T/C (endpoint: mean survival time, dose: 25.0 mg/kg/injection, schedule: Q01DX009 (ip), vehicle: water) was 111 % of control.
Turning to `COc1ccc2nc3c(Cl)cccc3c(Cl)c2c1`, the T/C was 98 % of control under setting [5]; 97 % of control under setting [2]; 87 % of control (endpoint: mean survival time, dose: 200.0 mg/kg/injection, schedule: Q01DX001 (ip), vehicle: saline with Tween-80); 101 % of control under setting [3].
For `CC(C)=NNCCO`, the T/C is, setting by setting: (endpoint: mean survival time, dose: 6.25 mg/kg/injection, schedule: Q01DX009 (ip), vehicle: saline) 93 % of control; (endpoint: mean survival time, dose: 12.5 mg/kg/injection, schedule: Q01DX009 (ip), vehicle: saline) 95 % of control; (endpoint: mean survival time, dose: 25.0 mg/kg/injection, schedule: Q01DX009 (ip), vehicle: saline) 104 % of control.
For `CCOP(=O)(N1CC1(C)C)N1CC1(C)C` (configuration not stated), the T/C runs as follows: (endpoint: mean survival time, dose: 5.0 mg/kg/injection, schedule: Q01DX009 (ip), vehicle: saline) 104 % of control; (endpoint: mean survival time, dose: 10.0 mg/kg/injection, schedule: Q01DX009 (ip), vehicle: saline) 114 % of control; (endpoint: mean survival time, dose: 30.0 mg/kg/injection, schedule: Q01DX009 (ip), vehicle: saline) 162 % of control; (endpoint: mean survival time, dose: 50.0 mg/kg/injection, schedule: Q01DX009 (ip), vehicle: saline) 225 % of control; (endpoint: mean survival time, dose: 80.0 mg/kg/injection, schedule: Q01DX009 (ip), vehicle: saline) 307 % of control; (endpoint: mean survival time, dose: 120.0 mg/kg/injection, schedule: Q01DX009 (ip), vehicle: saline) 102 % of control.
With `Cc1cccnc1NC(=O)/C=C/C(=O)O`, the T/C (endpoint: mean survival time, dose: 12.5 mg/kg/injection, schedule: Q04DX003 (ip), vehicle: saline with Tween-80) is 96 % of control; the T/C (endpoint: mean survival time, dose: 25.0 mg/kg/injection, schedule: Q04DX003 (ip), vehicle: saline with Tween-80) is 101 % of control; the T/C under setting [5] is 104 % of control.
For `NC(N)=N/N=C/c1cc(Br)ccc1O`, the T/C was 105 % of control (endpoint: mean survival time, dose: 37.5 mg/kg/injection, schedule: Q01DX009 (ip), vehicle: saline); 110 % of control (endpoint: mean survival time, dose: 37.5 mg/kg/injection, schedule: Q04DX003 (ip), vehicle: saline); 114 % of control (endpoint: mean survival time, dose: 75.0 mg/kg/injection, schedule: Q04DX003 (ip), vehicle: saline); 108 % of control (endpoint: mean survival time, dose: 150.0 mg/kg/injection, schedule: Q04DX003 (ip), vehicle: saline).
As for `C[N+]1(C)CCc2ccccc2C1Cc1ccc(Oc2ccc(CC3c4ccccc4CC[N+]3(C)C)cc2)cc1` (configuration not stated), the T/C reads like this: (endpoint: mean survival time, dose: 0.2 mg/kg/injection, schedule: Q01DX009 (ip), vehicle: saline) 93 % of control; (endpoint: mean survival time, dose: 0.39 mg/kg/injection, schedule: Q01DX009 (ip), vehicle: saline) 96 % of control.
Regarding `O=C1C(c2ccccc2)=C(c2ccccc2)CC1O` (configuration not stated), the T/C reads like this: under setting [2], 103 % of control; under setting [3], 91 % of control; under setting [4], 103 % of control.
On to `Cn1c(=O)[nH]cc(C2OC(CO)C(O)C2O)c1=O` (configuration not stated), for which the T/C (endpoint: median survival time, dose: 12.5 mg/kg/injection, schedule: Q01DX005 (ip), vehicle: saline) was 103 % of control; the T/C (endpoint: median survival time, dose: 25.0 mg/kg/injection, schedule: Q01DX005 (ip), vehicle: saline) was 100 % of control; the T/C (endpoint: median survival time, dose: 50.0 mg/kg/injection, schedule: Q01DX005 (ip), vehicle: saline) was 92 % of control; the T/C (endpoint: median survival time, dose: 100.0 mg/kg/injection, schedule: Q01DX005 (ip), vehicle: saline) was 100 % of control; the T/C (endpoint: median survival time, dose: 200.0 mg/kg/injection, schedule: Q01DX005 (ip), vehicle: saline) is 107 % of control.
For the molecule `c1ccc2c(c1)ccn2CCCCn1ccc2ccccc21`, the T/C by setting is: under setting [6], 101 % of control; under setting [1], 101 % of control; under setting [7], 101 % of control.
With `O=C(Oc1ccccc1/C=C/[n+]1ccccc1)c1ccccc1`, the T/C under setting [6] was 92 % of control, the T/C under setting [1] is 100 % of control and the T/C under setting [7] is 96 % of control.
For the molecule `CC(C)C/C(=N\Nc1ccccc1)c1ccccn1`, the T/C is, setting by setting: (endpoint: mean survival time, dose: 100.0 mg/kg/injection, schedule: Q01DX001 (ip), vehicle: saline) 101 % of control; (endpoint: mean survival time, dose: 200.0 mg/kg/injection, schedule: Q01DX001 (ip), vehicle: saline) 100 % of control; (endpoint: mean survival time, dose: 400.0 mg/kg/injection, schedule: Q01DX001 (ip), vehicle: saline) 97 % of control.
On to `CCOC(=O)CC(=O)C(F)(F)F.[Cu+2]`, for which the T/C (endpoint: mean survival time, dose: 2.5 mg/kg/injection, schedule: Q01DX009 (ip), vehicle: saline with Tween-80) is 98 % of control; the T/C (endpoint: mean survival time, dose: 5.0 mg/kg/injection, schedule: Q01DX009 (ip), vehicle: saline with Tween-80) was 98 % of control; the T/C (endpoint: mean survival time, dose: 10.0 mg/kg/injection, schedule: Q01DX009 (ip), vehicle: saline with Tween-80) was 95 % of control.
In the case of `NC(=O)Nc1cc(NC(N)=O)cc(N(CCCl)CCCl)c1`, the T/C (endpoint: mean survival time, dose: 2.5 mg/kg/injection, schedule: Q01DX009 (ip), vehicle: Klucel (hydroxypropylcellulose) (HPC)) was 108 % of control; the T/C (endpoint: mean survival time, dose: 5.0 mg/kg/injection, schedule: Q01DX009 (ip), vehicle: Klucel (hydroxypropylcellulose) (HPC)) was 111 % of control; the T/C (endpoint: mean survival time, dose: 10.0 mg/kg/injection, schedule: Q01DX009 (ip), vehicle: Klucel (hydroxypropylcellulose) (HPC)) is 119 % of control.
For the molecule `C[Si](C)(CN)CN.O=C([O-])C1(C(=O)[O-])CCC1.[Pt+4]`, the T/C runs as follows: (endpoint: median survival time, dose: 2.5 mg/kg/injection, schedule: Q04DX003 (ip), vehicle: water) 110 % of control; (endpoint: median survival time, dose: 5.0 mg/kg/injection, schedule: Q04DX003 (ip), vehicle: water) 107 % of control; (endpoint: median survival time, dose: 10.0 mg/kg/injection, schedule: Q04DX003 (ip), vehicle: water) 122 % of control; (endpoint: median survival time, dose: 20.0 mg/kg/injection, schedule: Q04DX003 (ip), vehicle: water) 151 % of control; (endpoint: median survival time, dose: 25.0 mg/kg/injection, schedule: Q04DX003 (ip), vehicle: water) 151 % of control; (endpoint: median survival time, dose: 40.0 mg/kg/injection, schedule: Q04DX003 (ip), vehicle: water) 164 % of control and 177 % of control. The T/C reads like this: (endpoint: median survival time, dose: 50.0 mg/kg/injection, schedule: Q04DX003 (ip), vehicle: water) 175 % of control; (endpoint: median survival time, dose: 60.0 mg/kg/injection, schedule: Q04DX003 (ip), vehicle: water) 181 % of control; (endpoint: median survival time, dose: 80.0 mg/kg/injection, schedule: Q04DX003 (ip), vehicle: water) 244 % of control; (endpoint: median survival time, dose: 100.0 mg/kg/injection, schedule: Q04DX003 (ip), vehicle: water) 175 % of control.
